# From US8900590B2 (priority 2010, dated 2014)
# System: H1N1 A/California/04/09
# Type: in vivo, DBA/2 mice
# Conditions: 18 days
smiles,measurement,value
CCOC(=O)C1=C[C@@H](OC(CC)CC)[C@H](NC(C)=O)[C@@H](N)C1 [oseltamivir],animals survived,no survival
